How the values were obtained:
[1] = test system: dog; conditions: Subchronic oral toxicity in nonrodent, beagle, Gavage/Intubation, dose end: 14 week, group: systemic
[2] = test system: rat; conditions: Other (NonGuideline or Guideline Not Listed); sprague dawley; Oral; Gavage/Intubation; dose end: 1 day; group: cannot be grouped; systemic / in life observation / clinical signs / salivation + systemic / in life observation / clinical signs / urogenital staining
[3] = test system: rat; conditions: Subchronic oral toxicity in rodents, wistar, Feed, dose end: 98 day, group: systemic
[4] = test system: rat; conditions: Prenatal developmental toxicity study; sprague dawley; Oral; Gavage/Intubation; dose end: 17 GD; group: maternal; systemic / in life observation / body weight / body weight gain
[5] = test system: dog; conditions: Sub-acute repeat dose toxicity; beagle; Oral; Gavage/Intubation; dose end: 4 week; group: systemic; systemic / hematology / blood clotting / blood clotting - prothrombin time + systemic / hematology / blood clotting / blood clotting - …
[6] = test system: rat; conditions: Prenatal developmental toxicity study, sprague dawley, Oral, Gavage/Intubation, dose end: 17 GD
[7] = test system: rat; conditions: Fertility (Segment I); sprague dawley; Oral; Gavage/Intubation; dose end: 7 GD; group: parental; systemic / in life observation / food consumption / food consumption + systemic / organ weight / uterus / nos
[8] = test system: dog; conditions: Subchronic oral toxicity in nonrodent, beagle, Gavage/Intubation, dose end: 3 month, group: systemic, systemic / hematology / blood clotting / blood clotting - activated partial thromboplastin time + systemic / hematology / blood clotting / …
[9] = test system: rat; conditions: Sub-acute repeat dose toxicity; sprague dawley; Oral; Gavage/Intubation; dose end: 4 week; group: systemic; systemic / hematology / blood clotting / blood clotting - activated partial thromboplastin time + systemic / hematology / blood clotting / …
[10] = test system: rabbit; conditions: Prenatal developmental toxicity study, new zealand white, Oral, Gavage/Intubation, dose end: 19 GD
[11] = test system: rabbit; conditions: Prenatal developmental toxicity study, new zealand white, Oral, Gavage/Intubation, dose end: 19 GD; remark: listed apart in the source
[12] = test system: rat; conditions: Chronic toxicity, sprague dawley, Oral, Gavage/Intubation, dose end: 6 month, group: systemic
[13] = test system: mouse; conditions: Subchronic oral toxicity in rodents, other, Feed, dose end: 13 week, group: systemic, systemic / clinical chemistry / [other] / [other] + systemic / clinical chemistry / alderin epoxidase / alderin epoxidase + systemic / …
[14] = test system: mouse; conditions: Combined chronic toxicity/carcinogenicity; other; Oral; Feed; dose end: 104 week; group: systemic; systemic / pathology microscopic / blood / leukemia + systemic / pathology microscopic / blood / lymphoma nos + systemic / pathology …
[15] = test system: rat; conditions: Chronic toxicity; wistar; Oral; Feed; dose end: 92 week; group: cholinesterase; cholinesterase / cholinesterase / cholinesterase / erythrocyte cholinesterase (che) + cholinesterase / cholinesterase / cholinesterase / …
[16] = test system: rat; conditions: Prenatal developmental toxicity study, sprague dawley, Oral, Gavage/Intubation, dose end: 15 GD
[17] = test system: dog; conditions: Chronic toxicity, beagle, Oral, Feed, dose end: 52 week
[18] = test system: rat; conditions: Subchronic oral toxicity in rodents, wistar, [Not Specified], dose end: 6 month
[19] = test system: rabbit; conditions: Sub-acute repeat dose toxicity; Oral; Gavage/Intubation; dose end: 5 day; group: systemic; systemic / in life observation / food consumption / food consumption
[20] = test system: rabbit; conditions: Sub-acute repeat dose toxicity, Oral, Gavage/Intubation, dose end: 5 day, group: systemic
[21] = test system: rabbit; conditions: Prenatal developmental toxicity study, new zealand white, Oral, Gavage/Intubation, dose end: 19 GD; remark: listed apart in the source
[22] = test system: rat; conditions: Subchronic dermal toxicity, sprague dawley, Topical, dose end: 21 day, group: systemic
[23] = test system: rat; conditions: Subchronic oral toxicity in rodents, sprague dawley, Gavage/Intubation, dose end: 13 week, group: systemic, systemic / clinical chemistry / thyroxine (t4) / thyroxine (t4), total + systemic / organ weight / thyroid gland / absolute + systemic / …
[24] = systemic / clinical chemistry / chloride / chloride + systemic / clinical chemistry / phosphorus / phosphorus + systemic / clinical …
[25] = systemic / clinical chemistry / phosphorus / phosphorus + systemic / pathology microscopic / bone / [other]
[26] = systemic / in life observation / body weight / body weight gain + systemic / in life observation / clinical signs / wetness + systemic / …
[27] = group: developmental, developmental / developmental malformation / bone / supernumerary
[28] = group: maternal, systemic / in life observation / body weight / body weight gain + systemic / in life observation / food consumption / food consumption
[29] = group: developmental, developmental / developmental malformation / general / [other] + systemic / in life observation / body weight / fetal weight
[30] = group: maternal, systemic / in life observation / body weight / body weight gain + systemic / in life observation / clinical signs / alopecia + systemic / in…
[31] = group: developmental, systemic / in life observation / body weight / fetal weight
[32] = group: maternal, systemic / in life observation / body weight / body weight gain + systemic / in life observation / food consumption / food consumption + …
[33] = systemic / hematology / blood clotting / blood clotting - activated partial thromboplastin time + systemic / hematology / blood clotting / …
[34] = systemic / in life observation / body weight / body weight gain + systemic / organ weight / pituitary gland / relative to body weight + …
[35] = group: developmental, developmental / developmental malformation / bone / short
[36] = group: maternal, systemic / in life observation / body weight / body weight + systemic / in life observation / body weight / body weight gain + systemic / in…
[37] = group: cholinesterase, cholinesterase / cholinesterase / cholinesterase / plasma cholinesterase (che)
[38] = group: systemic, systemic / pathology microscopic / lymph node / hemorrhage
[39] = group: systemic, systemic / pathology microscopic / lymph node / hemorrhage + systemic / pathology microscopic / lymph node / hyperplasia
[40] = group: cholinesterase, cholinesterase / cholinesterase / cholinesterase / brain cholinesterase (che) + cholinesterase / cholinesterase / cholinesterase / …
[41] = group: systemic, systemic / clinical chemistry / glucose / glucose + systemic / organ weight / liver / nos + systemic / organ weight / liver / relative to …
[42] = group: systemic, systemic / organ weight / brain / nos + systemic / organ weight / kidney / nos
[43] = systemic / in life observation / body weight / body weight + systemic / in life observation / food consumption / food consumption
[44] = systemic / in life observation / food consumption / food consumption
[45] = group: developmental, developmental / developmental malformation / brain / hydrocephaly + developmental / developmental malformation / mouth / jaw / cleft palate…
[46] = systemic / clinical chemistry / triiodothyronine (t3) / triiodothyronine (t3), total

For Cc1ncc([C@@H](CCCCCCc2ccc3c(n2)NCCC3)CC(=O)O)cn1, the LOAEL [1, 24] was over 45 mg/kg/day, the NOAEL [1, 24] was at least 45 mg/kg/day and the LEL [1, 25] was 5 mg/kg/day. It also gave an NEL [1, 25] of under 5 mg/kg/day, an LEL [2] of 2000 mg/kg/day and an LOAEL [2] of over 2000 mg/kg/day. For the same compound, the NEL [2] was under 2000 mg/kg/day and the NOAEL [2] was at least 2000 mg/kg/day.
Oc1cc(Cl)c(Cl)cc1Cl [2,4,5-Trichlorophenol] was tested, and the LOAEL [3, 26] was over 1000 mg/kg/day, the NEL [3, 26] was 100 mg/kg/day and the NOAEL [3, 26] was at least 1000 mg/kg/day. The LEL ([3]; systemic / in life observation / clinical signs / wetness + systemic / pathology microscopic / kidney / degeneration + systemic / pathology …) was 300 mg/kg/day.
O=C([O-])c1ccc2c(c1)nc(C(=O)NC1CCN(C3CC3)CC1)n2Cc1cc(-c2ccc(Cl)s2)on1.[Na+] [AVE3247] showed an LEL [4] of 2000 mg/kg/day, an LOAEL [4] of over 2000 mg/kg/day and an NEL [4] of 1000 mg/kg/day. The NOAEL [4] was at least 2000 mg/kg/day, the LEL [5] was 10 mg/kg/day and the LOAEL [5] was over 100 mg/kg/day. It also gave an NEL [5] of under 10 mg/kg/day, an NOAEL [5] of at least 100 mg/kg/day and an LEL [6, 27] of 500 mg/kg/day. It also gave an LOAEL [6, 27] of 500 mg/kg/day, an NEL [6, 27] of 200 mg/kg/day and an NOAEL [6, 27] of 200 mg/kg/day. For the same compound, the LEL [6, 28] was 2000 mg/kg/day, the LOAEL [6, 28] was 2000 mg/kg/day and the NEL [6, 28] was 500 mg/kg/day. For the same compound, the NOAEL [6, 28] was 500 mg/kg/day, the LEL [7] was 2000 mg/kg/day and the LOAEL [7] was over 2000 mg/kg/day. For the same compound, the NEL [7] was 500 mg/kg/day, the NOAEL [7] was at least 2000 mg/kg/day and the LEL [8] was 10 mg/kg/day. The LOAEL [8] was over 80 mg/kg/day, the NEL [8] was under 10 mg/kg/day and the NOAEL [8] was at least 80 mg/kg/day. It also gave an LEL [9] of 200 mg/kg/day, an LOAEL [9] of over 2000 mg/kg/day and an NEL [9] of under 200 mg/kg/day. For the same compound, the NOAEL [9] was at least 2000 mg/kg/day, the LEL [10, 29] was 2000 mg/kg/day and the LOAEL [10, 29] was over 2000 mg/kg/day. For the same compound, the NEL [10, 29] was 1000 mg/kg/day, the NOAEL [10, 29] was at least 2000 mg/kg/day and the LEL [10, 30] was 500 mg/kg/day. For the same compound, the LOAEL [10, 30] was 1000 mg/kg/day, the NEL [10, 30] was under 500 mg/kg/day and the NOAEL [10, 30] was 500 mg/kg/day. The LEL [11, 31] was 2000 mg/kg/day, the LOAEL [11, 31] was 2000 mg/kg/day and the NEL [11, 31] was 500 mg/kg/day. For the same compound, the NOAEL [11, 31] was 500 mg/kg/day, the LEL [11, 28] was 500 mg/kg/day and the LOAEL [11, 28] was 500 mg/kg/day. The NEL [11, 32] was 200 mg/kg/day, the NOAEL [11, 32] was 200 mg/kg/day and the LEL [12, 33] was 200 mg/kg/day. The NEL [12, 33] was under 200 mg/kg/day, the LOAEL [12, 34] was 2000 mg/kg/day and the NOAEL [12, 34] was 500 mg/kg/day.
Work on CC(=O)O[C@]1(C(C)=O)CC[C@H]2[C@@H]3C=C(Cl)C4=CC(=O)[C@@H]5C[C@@H]5[C@]4(C)[C@H]3CC[C@@]21C [Cyproterone acetate] yielded an LEL [13] of 125 mg/kg/day, an LOAEL [13] of over 125 mg/kg/day and an NEL [13] of under 125 mg/kg/day. The NOAEL [13] was at least 125 mg/kg/day, the LEL [14] was 120 mg/kg/day and the LOAEL [14] was over 120 mg/kg/day. The NEL [14] was under 120 mg/kg/day and the NOAEL [14] was at least 120 mg/kg/day.
COP(=S)(OC)Oc1ccc([N+](=O)[O-])c(C)c1 [Fenitrothion] showed an LEL [15] of 0.27 mg/kg/day, an LOAEL [15] of 0.27 mg/kg/day and an NEL [15] of 0.128 mg/kg/day. The NOAEL [15] was 0.128 mg/kg/day, the LEL [16, 35] was 25 mg/kg/day and the LOAEL [16, 35] was 25 mg/kg/day. For the same compound, the NEL [16, 35] was 8 mg/kg/day, the NOAEL [16, 35] was 8 mg/kg/day and the LEL [16, 36] was 25 mg/kg/day. The LOAEL [16, 36] was 25 mg/kg/day, the NEL [16, 36] was 8 mg/kg/day and the NOAEL [16, 36] was 8 mg/kg/day. The LEL [17, 37] was 0.25 mg/kg/day, the LOAEL [17, 37] was 0.25 mg/kg/day and the NEL [17, 37] was 0.125 mg/kg/day. For the same compound, the NOAEL [17, 37] was 0.125 mg/kg/day, the LEL [17, 38] was 0.25 mg/kg/day and the LOAEL [17, 38] was 0.25 mg/kg/day. For the same compound, the NEL [17, 39] was 0.125 mg/kg/day, the NOAEL [17, 39] was 0.125 mg/kg/day and the LEL [18, 40] was 2 mg/kg/day. For the same compound, the LOAEL [18, 40] was 9.16 mg/kg/day, the NEL [18, 40] was 0.64 mg/kg/day and the NOAEL [18, 40] was 1.83 mg/kg/day. The LOAEL [18, 41] was 2 mg/kg/day, the NOAEL [18, 41] was 0.64 mg/kg/day and the LEL [18, 42] was 0.59 mg/kg/day. For the same compound, the NEL [18, 42] was under 0.59 mg/kg/day.
With O=C(N[C@@H](Cc1ccccc1)[C@@H](O)C(=O)N1C[C@@H](O)[C@@H](O)C1)c1cc2cc(Cl)ccc2[nH]1 [Ingliforib] the LEL [19] was 250 mg/kg/day, the LOAEL [19] was over 500 mg/kg/day and the NEL [19] was under 250 mg/kg/day. It also gave an NOAEL [19] of at least 500 mg/kg/day, an LOAEL [20, 43] of over 500 mg/kg/day and an NOAEL [20, 43] of at least 500 mg/kg/day. It also gave an LEL [20, 44] of 50 mg/kg/day and an NEL [20, 44] of under 50 mg/kg/day.
Work on S=C([S-])NCCNC(=S)[S-].[Na+].[Na+] [Nabam-sodium] yielded an LEL [21, 45] of 2.62 mg/kg/day, an LOAEL [21, 45] of 2.62 mg/kg/day and an NEL [21, 45] of 0.328 mg/kg/day. The NOAEL [21, 45] was 0.328 mg/kg/day, the LEL [21, 32] was 32.8 mg/kg/day and the LOAEL [21, 32] was 32.8 mg/kg/day. The NEL [21, 32] was 2.62 mg/kg/day, the NOAEL [21, 32] was 2.62 mg/kg/day and the LEL [22, 46] was 15 mg/kg/day. The NEL [22, 46] was under 15 mg/kg/day, the NOAEL ([22]; systemic / clinical chemistry / triiodothyronine (t3) / triiodothyronine (t3), total + systemic / in life observation / clinical signs / …) was 15 mg/kg/day and the LOAEL ([22]; systemic / in life observation / clinical signs / erythema) was 150 mg/kg/day. The LEL [23] was 80 mg/kg/day, the LOAEL [23] was 80 mg/kg/day and the NEL [23] was 0.8 mg/kg/day. For the same compound, the NOAEL [23] was 0.8 mg/kg/day.

— EPA's ToxRefDB 2
